Measurements: patent US8975265B2, “Substituted imidazo[1,2-a]pyrimidines and —pyridines” (Bayer Intellectual Property GmbH, priority 2010, dated 2015)
Like-named read-outs stand apart in the source and are kept apart here.

Tests used:
[1] = test system: p-AKT1/2/3-S473 in KPL4 breast tumour cell line; assay: Cellular p-AKT1/2/3-S473 assay; assay type: cell-based; conditions: read-out: pAKT-S743 median IC50
Description: The molecular mechanism of action was investigated in a set of experiments to assess the inhibition of the PI3K-AKT-mTOR pathway in responsive cell lines such as KPL4 breast tumour cell line (PIK3CAH1047R, HER20/E and hormone independent). The phospho-substrates of PI3K-AKT-mTOR axis were used as the read-outs to reflect pathway inhibition. Cells were seeded at 60-80% confluency per well in 96-well cell culture plates. After overnight incubation at 37° C. 5% CO2, cells were treated with compounds and vehicle at 37° C. for 2 hours. […] All measurements where at least done in duplicates and confirmed by independent repetition.
Alternatively pAKT-S473 was measured using the “Akt Duplex” of the MULTI-SPOT® Assay System (Fa. Meso Scale Discovery, Cat# N41100B-1) following manufacturers instructions. Each assay used 20 μg of protein extract and measured total AKT and p-AKT content simultaneously in one well. All measurements where at least done in duplicates and confirmed by independent repetition. Values for P-AKT are expressed as percentage of P-AKT level compared to total-AKT content of the extracts.

[2] = test system: KPL-4 breast cancer cell line; assay: Tumor cell proliferation assay (CellTiter-Glo, 72 h), KPL-4; assay type: cell-based; conditions: KPL4, 72h drug exposure
Description: Biological Assay 4.0: Tumor Cell Proliferation Assays
(§1) Compounds were tested in a cell-based assay that measures the capacity of the compounds to inhibit tumour cell proliferation following a 72h drug exposure. Cell viability is determined using CellTiter-Glow® (CTG, Promega, cat# G7571/2/3). The CellTiter-Glo® Luminescent Cell Viability Assay is a homogeneous method to determine the number of viable cells in culture. Detection is based on using the luciferase reaction to measure the amount of ATP from viable cells. The amount of ATP in cells correlates with cell viability. Within minutes after a loss of membrane integrity, cells lose the ability to synthesize ATP, and endogenous ATPases destroy any remaining ATP; thus the levels of ATP fall precipitously.
(§2) For each cell line assayed, cells were plated onto a separate plate for determination of […] at t=0 hour and t=72 hour time points. Following overnight incubation at 37° C., chemiluminescence values for the t=0 samples were determined after adding 10 μl medium and 100 μl CTG solution according to manufacture protocol. Plates for the t=72 hour time points were treated with compounds diluted into growth medium at ten times final concentration added in 10 μL to the cell culture plate. Cells were then incubated for 72 hours at 37° C. Chemiluminescence values for the t=72 hour samples were determined. […] Experiments were controlled using a reference compound as standard.

MCF7 = assay: Tumor cell proliferation assay (CellTiter-Glo, 72 h), MCF7; assay type: cell-based; conditions: Homo sapiens, 72h drug exposure
Description: as §1
as §2, with “Cells were plated at 3000-5000 cells/well (depending on the cell lines) in 90 μL growth medium on MTPs (Corning; #3603, black plate, clear flat bottom). For” for “For”

[3] = biological target: His-tagged human recombinant kinase full-length Akt1 (Homo sapiens (Human), UniProt P31749); assay: Akt1 kinase assay (TR-FRET); assay type: biochemical; conditions: 10 μM ATP; read-out: Akt1, median IC50
Chain of His-tagged human recombinant kinase full-length Akt1 (P31749 whole entry): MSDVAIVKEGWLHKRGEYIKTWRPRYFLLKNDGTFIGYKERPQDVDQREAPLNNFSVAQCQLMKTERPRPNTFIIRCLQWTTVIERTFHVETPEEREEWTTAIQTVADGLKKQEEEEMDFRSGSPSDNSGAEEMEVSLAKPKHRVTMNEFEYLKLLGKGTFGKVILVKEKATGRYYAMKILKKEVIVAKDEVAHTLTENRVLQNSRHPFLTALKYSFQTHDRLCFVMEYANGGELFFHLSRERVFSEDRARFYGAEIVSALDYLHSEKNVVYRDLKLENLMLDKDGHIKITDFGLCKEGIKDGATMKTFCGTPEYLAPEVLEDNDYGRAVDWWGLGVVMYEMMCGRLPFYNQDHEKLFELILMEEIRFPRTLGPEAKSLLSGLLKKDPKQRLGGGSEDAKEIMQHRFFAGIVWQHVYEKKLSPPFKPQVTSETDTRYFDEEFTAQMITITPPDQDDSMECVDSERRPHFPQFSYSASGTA
Description: Biological Assay 1.0: Akt1 Kinase Assay
Akt1 inhibitory activity of compounds of the present invention was quantified employing the Akt1 TR-FRET assay as described in the following paragraphs.
As substrate for the kinase reaction the biotinylated peptide biotin-Ahx-[…] (C-terminus in amide form) was used which can be purchased e.g. from the company Biosynthan GmbH (Berlin-Buch, Germany).
For the assay 50 nl of a 100 fold concentrated solution of the test compound in DMSO was pipetted into a black low volume 384 well microtiter plate (Greiner Bio-One, Frickenhausen, Germany), 2 μl of a solution of Akt1 in assay buffer [50 mM TRIS/HCl pH 7.5, 5 mM MgCl2, 1 mM dithiothreitol, 0.02% (v/v) Triton X-100 (Sigma)] were added and the mixture was incubated for 15 min at 22° C. to allow prebinding of the test compounds to the enzyme before the start of the kinase reaction. […] The concentration of Akt1 in the assay was adjusted depending of the activity of the enzyme lot and was chosen appropriate to have the assay in the linear range, typical enzyme concentrations were in the range of about 0.05 ng/μl (final conc. in the 5 μl assay volume).
The resulting mixture was incubated 1 h at 22° C. to allow the binding of the biotinylated phosphorylated peptide to the streptavidine-XL665 and the antibodies. Subsequently the amount of phosphorylated substrate was evaluated by measurement of the resonance energy transfer from the anti-mouse-IgG-Eu-Chelate to the streptavidine-XL665.

[4] = KPL4 breast tumour cell line, 2 hours treatment

`NC1(c2ccc(-c3nc4c(-c5ccn[nH]5)cccn4c3-c3ccccc3)cc2)CCC1` [Example 2-71] showed an IC50 [1, 4] of 153 nM, an IC50 [2] of 1900 nM and an IC50 (MCF7) of 1600 nM. For the same molecule, the IC50 [3] was 64 nM.
In the case of `CNC(=O)Nc1ccc2nc(-c3ccc(C4(N)CCC4)cc3)c(-c3ccccc3)n2c1` [Example 2-158], the IC50 [1, 4] is reported as 384 nM, the IC50 [2] is reported as 4700 nM and the IC50 (MCF7) is reported as 1700 nM. It also gave an IC50 [3] of 327 nM.
With `NC1(c2ccc(-c3nc4c(-c5ccc(F)cc5)cccn4c3-c3ccccc3)cc2)CCC1` [Example 2-68, 1-{4-[8-(4-fluorophenyl)-3-phenyl-imidazo[1,2-a]pyridin-2-yl]-phenyl}-cyclobutylamine] the IC50 [1, 4] was 748 nM, the IC50 [2] was 3100 nM and the IC50 (MCF7) was 1900 nM. For the same molecule, the IC50 [3] was 308 nM.
Molecule `CON(C)C(=O)c1ccn2c(-c3ccccc3)c(-c3ccc(C4(N)CCC4)cc3)nc2c1` [Example 2-154] has an IC50 [1, 4] of 720 nM, an IC50 [2] of 7500 nM and an IC50 (MCF7) of 1700 nM. The IC50 [3] was 2150 nM.
Work on `COc1cncc(-c2cccn3c(-c4ccccc4)c(-c4ccc(C5(N)CCC5)cc4)nc23)c1` [Example 2-70] yielded an IC50 [1, 4] of 298 nM, an IC50 [2] of 2000 nM and an IC50 (MCF7) of 1600 nM.
`N#Cc1cc(Cl)c2nc(-c3ccc(C4(N)CCC4)cc3)c(-c3ccccc3)n2c1` [Example 15-0, 2-[4-(1-aminocyclobutyl)phenyl]-8-chloro-3-phenylimidazo[1,2-a]pyridine-6-carbonitrile] gave an IC50 [1, 4] of 30 nM, an IC50 [2] of 1300 nM and an IC50 (MCF7) of 600 nM. The IC50 [3] was 141 nM.
Molecule `COC(=O)c1cc(OC)c2nc(-c3ccc(C4(N)CCC4)cc3)c(-c3ccccc3)n2c1` [Example 1-12] has an IC50 [1, 4] of 276 nM, an IC50 [2] of 8300 nM and an IC50 (MCF7) of 800 nM.
`NC(=O)Nc1ccn2c(-c3ccccc3)c(-c3ccc(C4(N)CCC4)cc3)nc2c1` [Example 2-153] was tested, and the IC50 [1, 4] was 1640 nM, the IC50 [2] was 10000 nM and the IC50 (MCF7) was 400 nM. For the same molecule, the IC50 [3] was 457 nM.
`NC1(c2ccc(-c3nc4ccc(-n5cccn5)cn4c3-c3ccccc3)cc2)CCC1` [Example 1-16] was tested, and the IC50 [1, 4] was 359 nM, the IC50 [2] was 2000 nM and the IC50 (MCF7) was 1800 nM.
Work on `NC1(c2ccc(-c3nc4c(-c5cccc(F)c5)cccn4c3-c3ccccc3)cc2)CCC1` [Example 2-69] yielded an IC50 [1, 4] of 796 nM, an IC50 [2] of 2900 nM and an IC50 (MCF7) of 1800 nM. For the same molecule, the IC50 [3] was 208 nM.
Work on `COc1cc(-c2cn[nH]c2)cn2c(-c3ccccc3)c(-c3ccc(C4(N)CCC4)cc3)nc12` [Example 13-0, 1-{4-[8-methoxy-3-phenyl-6-(1H-pyrazol-4-yl)-imidazo[1,2-a]pyridin-2-yl]-phenyl}-cyclobutylamine] yielded an IC50 [1, 4] of 89 nM, an IC50 [2] of 1700 nM and an IC50 (MCF7) of 900 nM. The IC50 [3] was 81 nM.
`CC(=O)Nc1ccn2c(-c3ccccc3)c(-c3ccc(C4(N)CCC4)cc3)nc2c1` [Example 2-152] was tested, and the IC50 [1, 4] was 185 nM, the IC50 [2] was 1800 nM and the IC50 (MCF7) was 1700 nM. The IC50 [3] was 554 nM.
With `CC(=O)c1ccn2c(-c3ccccc3)c(-c3ccc(C4(N)CCC4)cc3)nc2c1` [Example 2-128] the IC50 [1, 4] was 471 nM, the IC50 [2] was 4400 nM and the IC50 (MCF7) was 1700 nM. It also gave an IC50 [3] of 175 nM.
Molecule `NC(=O)Nc1ccc2nc(-c3ccc(C4(N)CCC4)cc3)c(-c3ccccc3)n2c1` [Example 2-157] has an IC50 [1, 4] of 965 nM, an IC50 [2] of 10000 nM and an IC50 (MCF7) of 1100 nM.
`N#CCOc1ccc2nc(-c3ccc(C4(N)CCC4)cc3)c(-c3ccccc3)n2c1` [Example 9-5] was tested, and the IC50 [1, 4] was 51 nM, the IC50 [2] was 2200 nM and the IC50 [3] was 96 nM.
With `NC1(c2ccc(-c3nc4ccc(CO)cn4c3-c3ccccc3)cc2)CCC1` [Example 2-25] the IC50 [1, 4] was 213 nM, the IC50 [2] was 2300 nM and the IC50 [3] was 504 nM.
`NC1(c2ccc(-c3nc4ccc(C(=O)NCC5CC5)cn4c3-c3ccccc3)cc2)CCC1` [Example 2-58] showed an IC50 [1, 4] of 193 nM, an IC50 [2] of 1900 nM and an IC50 [3] of 342 nM.
With `NC1(c2ccc(-c3nc4ccc(C(=O)O)cn4c3-c3ccccc3)cc2)CCC1` [Example 2-51] the IC50 [1, 4] was 4750 nM, the IC50 [2] was 10000 nM and the IC50 [3] was 91 nM.
In the case of `NC1(c2ccc(-c3nc4cc(-c5cn[nH]c5)ccn4c3-c3ccccc3)cc2)CCC1` [Example 2-22], the IC50 [1, 4] is reported as 142 nM, the IC50 [2] is reported as 1500 nM and the IC50 [3] is reported as 188 nM.
Molecule `NC1(c2ccc(-c3nc4ccc(O)cn4c3-c3ccccc3)cc2)CCC1` [Example 5-0, 2-[4-(1-amino-cyclobutyl)-phenyl]-3-phenyl-imidazo[1,2-a]pyridin-6-ol] has an IC50 [1, 4] of 103 nM, an IC50 [2] of 3200 nM and an IC50 [3] of 303 nM.
`NC1(c2ccc(-c3nc4c(C5CC5)cccn4c3-c3ccccc3)cc2)CCC1` [Example 2-47] was tested, and the IC50 [1, 4] was 339 nM, the IC50 [2] was 2000 nM and the IC50 [3] was 140 nM.
With `NC1(c2ccc(-c3nc4ccc(C(=O)NC5CC5)cn4c3-c3ccccc3)cc2)CCC1` [Example 2-57] the IC50 [1, 4] was 147 nM, the IC50 [2] was 3100 nM and the IC50 [3] was 493 nM.
In the case of `CCOc1ccc2nc(-c3ccc(C4(N)CCC4)cc3)c(-c3ccccc3)n2c1` [Example 2-107, 1-[4-(6-ethoxy-3-phenyl-imidazo[1,2-a]pyridin-2-yl)-phenyl]-cyclobutylamine], the IC50 [1, 4] is reported as 253 nM, the IC50 [2] is reported as 1700 nM and the IC50 [3] is reported as 204 nM.
With `CC(C)NC(=O)c1ccc2nc(-c3ccc(C4(N)CCC4)cc3)c(-c3ccccc3)n2c1` [Example 2-53] the IC50 [1, 4] was 276 nM, the IC50 [2] was 2000 nM and the IC50 [3] was 1710 nM.
`NC1(c2ccc(-c3nc4cc(Cl)ccn4c3-c3ccccc3)cc2)CCC1` [Example 2-66] showed an IC50 [1, 4] of 134 nM, an IC50 [2] of 1800 nM and an IC50 [3] of 113 nM.
For `NC1(c2ccc(-c3nc4ccc(Br)cn4c3-c3ccccc3)cc2)CCC1` [Example 2-139], the IC50 ([1]; KPL4, 2 h) was 181 nM, the IC50 [2] was 2000 nM and the IC50 [3] was 44 nM.
`NC(=O)C1(COc2ccn3c(-c4ccccc4)c(-c4ccc(C5(N)CCC5)cc4)nc3n2)CC1` [Example 2-65] gave an IC50 [1, 4] of 3840 nM, an IC50 [2] of 10000 nM and an IC50 [3] of 1070 nM.
`COc1ccc2nc(-c3ccc(C4(N)CCC4)cc3)c(-c3ccccc3)n2c1` [Example 2-17] gave an IC50 [1, 4] of 35 nM, an IC50 [2] of 1500 nM and an IC50 [3] of 36 nM.
With `NC1(c2ccc(-c3nc4ccc(-c5cc[nH]n5)cn4c3-c3ccccc3)cc2)CCC1` [Example 2-131] the IC50 [1, 4] was 88 nM, the IC50 [2] was 1700 nM and the IC50 [3] was 171 nM.
`CCOC(=O)c1cccn2c(-c3ccccc3)c(-c3ccc(C4(N)CCC4)cc3)nc12` [Example 2-43] gave an IC50 [1, 4] of 1340 nM, an IC50 [2] of 9200 nM and an IC50 [3] of 62 nM.
With `NCCOc1ccn2c(-c3ccccc3)c(-c3ccc(C4(N)CCC4)cc3)nc2n1` [Example 4-0, 1-{4-[7-(2-amino-ethoxy)-3-phenyl-imidazo[1,2-a]pyrimidin-2-yl]-phenyl}-cyclobutylamine] the IC50 [1, 4] was 1460 nM, the IC50 [2] was 4600 nM and the IC50 [3] was 548 nM.
Work on `NC1(c2ccc(-c3nc4ccccn4c3-c3ccccc3)cc2)CCC1` [Example 2-106, 1-[4-(3-phenyl-imidazo[1,2-a]pyridin-2-yl)-phenyl]-cyclobutylamine] yielded an IC50 [1, 4] of 202 nM, an IC50 [2] of 2100 nM and an IC50 [3] of 151 nM.
